Assay results reported in patent US6737383B1, “Herbicidal oxadiazolidines” (priority 1999, dated 2004).

Assays:
corn = experiment: Test B pre/postemergence corn; format: in vivo, Zea mays
In short: (§1)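 Herbicidal effect was estimated by eye on a ten-point control scale after plants spent twelve to sixteen days in a greenhouse following soil or foliar treatment. Foliar sprays targeted plants at one to four leaves; all doses were formulated in a non-phytotoxic solvent with surfactant.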

crabgrass = experiment: Test B pre/postemergence crabgrass; format: in vivo, Digitaria sanguinalis
In short: as §1

smallflower flatsedge = experiment: Test B flood test smallflower flatsedge; format: in vivo, Cyperus difformis; details: Pre-emergence
In short: (§2)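 Plants were grown to the 2-leaf stage before treatment with test chemical, then held in a greenhouse for twelve to sixteen days. Injury was visually rated against untreated controls on a 0–10 scale, where 0 is no effect and 10 is complete control.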

blackgrass = experiment: Test B pre/postemergence blackgrass; format: in vivo, Alopecurus myosuroides
In short: as §1

wild oat = experiment: Test B pre/postemergence wild oat; format: in vivo, Avena fatua
In short: as §1

pigweed = experiment: Test B pre/postemergence pigweed; format: in vivo, Amaranthus retroflexus
In short: as §1

rice = experiment: Test B flood test rice; format: in vivo, Oryza sativa; details: Pre-emergence
In short: as §2

morningglory = experiment: Test B pre/postemergence morningglory; format: in vivo, Ipomoea hederacea
In short: as §1

wheat = experiment: Test B pre/postemergence wheat; format: in vivo, Triticum aestivum
In short: as §1

cocklebur = experiment: Test B pre/postemergence cocklebur; format: in vivo, Xanthium strumarium
In short: as §1

surinam grass = experiment: Test B pre/postemergence surinam grass; format: in vivo, Brachiaria decumbens
In short: as §1

velvetleaf = experiment: Test B pre/postemergence velvetleaf; format: in vivo, Abutilon theophrasti
In short: as §1

bedstraw = experiment: Test B pre/postemergence bedstraw; format: in vivo, Galium aparine
In short: as §1

soybean = experiment: Test B pre/postemergence soybean; format: in vivo, Glycine max
In short: as §1

bamyardgrass = experiment: Test B flood test barnyardgrass; format: in vivo, Echinochloa crus-galli; details: Pre-emergence
In short: as §2

giant foxtail = experiment: Test B pre/postemergence giant foxtail; format: in vivo, Setaria faberii
In short: as §1

[1] = Preemergence, Rate 62 g/ha, scale of 0 to 10 where 0 is no effect and 10 is complete control
[2] = Preemergence, Rate 250 g/ha, scale of 0 to 10 where 0 is no effect and 10 is complete control
[3] = Preemergence, Rate 500 g/ha, scale of 0 to 10 where 0 is no effect and 10 is complete control
[4] = Rate 62 g/ha, Postemergence, scale 0 to 10 (0 no effect, 10 complete control)
[5] = Rate 125 g/ha, Postemergence, scale of 0 to 10 where 0 is no effect and 10 is complete control
[6] = Rate 250 g/ha, Postemergence, scale of 0 to 10 where 0 is no effect and 10 is complete control
[7] = Rate 500 g/ha, Postemergence, scale 0 to 10, 0 no effect, 10 complete control
[8] = Rate 1000 g/ha, scale 0 to 10 (0 no effect, 10 complete control)
[9] = Rate 125 g/ha, flood test species, scale 0 to 10 where 0 is no effect and 10 is complete control
[10] = Rate 250 g/ha, flood-test species, scale 0 to 10, 0 is no effect, 10 is complete control
[11] = Rate 500 g/ha, flood test species, scale 0 to 10 (0 no effect, 10 complete control)

C=CCn1c(=O)on(C(=O)N(CC)C2CCCCC2)c1=O [Compound 307]
Corn plant response rating (corn; [1]): 0
Corn plant response rating (0 to 10 scale) (corn; Preemergence, Rate 125 g/ha): 0
Corn plant response rating (corn; [2]): 0
Corn plant response rating (corn; [3]): 2
Corn plant response rating (corn; [4]): 0
Corn plant response rating (corn; [5]): 0
Plant response rating, Corn (corn; [6]): 0
Corn plant response rating (corn; [7]): 0
Crabgrass plant response rating (crabgrass; [1]): 0
Crabgrass plant response rating (0 to 10 scale) (crabgrass; Preemergence, Rate 125 g/ha): 0
Crabgrass plant response rating (crabgrass; [2]): 0
Crabgrass plant response rating (crabgrass; [3]): 2
Crabgrass plant response rating (crabgrass; [4]): 0
Crabgrass plant response rating (crabgrass; [5]): 0
Plant response rating, Crabgrass (crabgrass; [6]): 0
S. Flatsedge plant response rating (smallflower flatsedge; [8]): 0
S. Flatsedge plant response rating (smallflower flatsedge; [9]): 0
S. Flatsedge plant response rating (smallflower flatsedge; [10]): 0
S. Flatsedge plant response rating (smallflower flatsedge; [11]): 0
Blackgrass plant response rating (blackgrass; [1]): 0
Blackgrass plant response rating (0 to 10 scale) (blackgrass; Preemergence, Rate 125 g/ha): 0
Blackgrass plant response rating (blackgrass; [2]): 2
Blackgrass plant response rating (blackgrass; [3]): 4
Blackgrass plant response rating (blackgrass; [4]): 0
Blackgrass plant response rating (blackgrass; [5]): 0
Plant response rating, Blackgrass (blackgrass; [6]): 0
Blackgrass plant response rating (blackgrass; [7]): 0
Wild oats plant response rating (wild oat; [1]): 0
Wild oats plant response rating (0 to 10 scale) (wild oat; Preemergence, Rate 125 g/ha): 0
Wild oats plant response rating (wild oat; [2]): 0
Wild oats plant response rating (wild oat; [3]): 8
Wild oats plant response rating (wild oat; [4]): 0
Wild oats plant response rating (wild oat; [5]): 0
Plant response rating, Wild oats (wild oat; [6]): 0
Redroot pigweed plant response rating (pigweed; [1]): 0
Redroot pigweed plant response rating (0 to 10 scale) (pigweed; Preemergence, Rate 125 g/ha): 0
Redroot pigweed plant response rating (pigweed; [2]): 0
Redroot pigweed plant response rating (pigweed; [3]): 4
Redroot pigweed plant response rating (pigweed; [4]): 0
Redroot pigweed plant response rating (pigweed; [5]): 0
Plant response rating, Redroot pigweed (pigweed; [6]): 0
Rice plant response rating (rice; [8]): 0
Rice plant response rating (rice; [9]): 0
Rice plant response rating (rice; [10]): 0
Rice plant response rating (rice; [11]): 0
Morningglory plant response rating (morningglory; [1]): 0
Morningglory plant response rating (0 to 10 scale) (morningglory; Preemergence, Rate 125 g/ha): 0
Morningglory plant response rating (morningglory; [2]): 0
Morningglory plant response rating (morningglory; [3]): 0
Morningglory plant response rating (morningglory; [4]): 0
Morningglory plant response rating (morningglory; [5]): 2
Plant response rating, Morningglory (morningglory; [6]): 2
Wheat plant response rating (wheat; [1]): 0
Wheat plant response rating (0 to 10 scale) (wheat; Preemergence, Rate 125 g/ha): 0
Wheat plant response rating (wheat; [2]): 0
Wheat plant response rating (wheat; [3]): 0
Wheat plant response rating (wheat; [4]): 0
Wheat plant response rating (wheat; [5]): 0
Plant response rating, Wheat (wheat; [6]): 0
Cocklebur plant response rating (cocklebur; [1]): 0
Cocklebur plant response rating (0 to 10 scale) (cocklebur; Preemergence, Rate 125 g/ha): 0
Cocklebur plant response rating (cocklebur; [2]): 0
Cocklebur plant response rating (cocklebur; [4]): 0
Cocklebur plant response rating (cocklebur; [5]): 0
Plant response rating, Cocklebur (cocklebur; [6]): 0
Cocklebur plant response rating (cocklebur; [7]): 0
B. signalgrass plant response rating (surinam grass; [1]): 0
B. signalgrass plant response rating (0 to 10 scale, 0 is no effect, 10 is complete control) (surinam grass; Preemergence, Rate 125 g/ha): 0
B. signalgrass plant response rating (surinam grass; [2]): 0
B. signalgrass plant response rating (surinam grass; [3]): 4
B. signalgrass plant response rating (surinam grass; [4]): 0
B. signalgrass plant response rating (surinam grass; [5]): 0
Plant response rating, B. signalgrass (surinam grass; [6]): 0
B. signalgrass plant response rating (surinam grass; [7]): 0
Velvetleaf plant response rating (velvetleaf; [1]): 0
Velvetleaf plant response rating (0 to 10 scale) (velvetleaf; Preemergence, Rate 125 g/ha): 0
Velvetleaf plant response rating (velvetleaf; [2]): 0
Velvetleaf plant response rating (velvetleaf; [3]): 2
Velvetleaf plant response rating (velvetleaf; [4]): 0
Velvetleaf plant response rating (velvetleaf; [5]): 0
Plant response rating, Velvetleaf (velvetleaf; [6]): 0
Bedstraw plant response rating (bedstraw; [1]): 0
Bedstraw plant response rating (0 to 10 scale) (bedstraw; Preemergence, Rate 125 g/ha): 0
Bedstraw plant response rating (bedstraw; [2]): 0
Bedstraw plant response rating (bedstraw; [3]): 0
Bedstraw plant response rating (bedstraw; [4]): 0
Bedstraw plant response rating (bedstraw; [5]): 0
Plant response rating, Bedstraw (bedstraw; [6]): 0
Bedstraw plant response rating (bedstraw; [7]): 0
Soybean plant response rating (soybean; [1]): 0
Soybean plant response rating (0 to 10 scale) (soybean; Preemergence, Rate 125 g/ha): 0
Soybean plant response rating (soybean; [2]): 0
Soybean plant response rating (soybean; [3]): 0
Soybean plant response rating (soybean; [4]): 0
Soybean plant response rating (soybean; [5]): 2
Plant response rating, Soybean (soybean; [6]): 2
Barnyardgrass plant response rating (bamyardgrass; [8]): 0
Barnyardgrass plant response rating (bamyardgrass; [9]): 0
Barnyardgrass plant response rating (bamyardgrass; [10]): 0
Barnyardgrass plant response rating (bamyardgrass; [11]): 0
Giant foxtail plant response rating (giant foxtail; [1]): 6
Giant foxtail plant response rating (0 to 10 scale) (giant foxtail; Preemergence, Rate 125 g/ha): 8
Giant foxtail plant response rating (giant foxtail; [2]): 9
Giant foxtail plant response rating (giant foxtail; [3]): 9
Giant foxtail plant response rating (giant foxtail; [4]): 0
Giant foxtail plant response rating (giant foxtail; [5]): 0
Plant response rating, Giant foxtail (giant foxtail; [6]): 0
